Data from paper PMC3299299, “Recombinant Expression and Characterization of Human and Murine ACE2: Species-Specific Activation of the Alternative Renin-Angiotensin-System” (International Journal of Hypertension, 2012).

What was measured:
Assay type in all cases: biochemical
RAS in whole blood = test: Ex vivo incubation of whole blood, RAS-Fingerprinting; conditions: whole blood instead of plasma, control and rhACE2 samples (Supplementary Figure 1)
Source text: These findings were in contrast to previously published reports on Ang 1–7 accumulating effects of ACE inhibitors in vivo [20, 21]. In our experimental setting, we employed heparinized blood plasma as a sample matrix for ACE2 characterization which is reflecting in vivo conditions very well. However, plasma lacks all blood cells which might carry receptors and angiotensin peptide converting enzymes being able to affect angiotensin peptide concentrations in vivo. […] As neutral endopeptidase (NEP, CD10) is known to be expressed on the cell surface of leukocytes and that it is able to convert Ang 1–10 and Ang 1–9 to Ang 1–7 in vitro [18], NEP is very likely to be responsible for Ang 1–7 accumulation also in vivo, especially in the presence of ACE inhibitors which block the formation of Ang 1–8 which is an important precursor for Ang 1–7.

[1] = tested on: human RAS in blood plasma; test: Ex vivo incubation of renin-spiked human plasma, RAS-Fingerprinting by LC-MS/MS; conditions: human plasma + 100 pg/mL recombinant human renin, 10 μM Lisinopril present, without or with 5 μg/mL enzyme, 10 min 37°C (Fig 3b)
Method: Anticoagulated blood was collected from healthy volunteers, and plasma was separated by 10 minutes centrifugation at 3000 RCF. […] After 10 minutes of incubation at 37°C, in the presence or absence of Lisinopril (Sigma), samples were chilled on ice and immediately subjected to LC-MS/MS analysis.
Plasma samples were spiked with 100 pg/mL stable-isotope-labeled internal standards and subjected to solid-phase extraction using Sep-Pak cartridges (Waters) according to manufacturers protocol. Following elution and solvent evaporation, samples were reconstituted in 50 μL 50% acetonitrile/0.1% formic acid and subjected to LC-MS/MS analysis using a reversed-phase analytical column (Luna C18, Phenomenex) using a gradient ranging from 10% acetonitrile/0.1% formic acid to 70% acetonitrile/0.1% formic acid in 9 minutes. The eluate was analyzed in line with a QTRAP-4000 mass spectrometer (AB Sciex) operated in the MRM mode using dwell times of 25 msec at a cone voltage of 4000 volts and a source temperature of 300°C. For each peptide and corresponding internal standards, two different mass transitions were measured. Angiotensin peptide concentrations were calculated by relating endogenous peptide signals to internal standard signals provided that integrated signals achieved a signal-to-noise ratio above 10.
RAS-Fingerprints were measured by LC-MS/MS as indicated in Section 2. Samples were incubated in the absence (a) or presence (b) of 10 μM of the ACE inhibitor Lisinopril. In this figure, the diameter of the spheres reflects the concentration of the respective peptide metabolite, which is also given in pg/mL next to each individual sphere. 0 pg/mL indicates concentrations below quantification limits, which are defined by a signal-to-noise ratio below 10. Furthermore, the amino acid sequence of each angiotensin metabolite is schematically given in brackets beside the corresponding sphere. The sequence annotation is based on the decapeptide Angiotensin I (1–10) which is N- or C-terminally cleaved by the indicated proteases. […]

Ang 1–8 = test: In vitro kinetic assay, Ang 1–8 cleavage to Ang 1–7, HPLC quantification; conditions: ratio of k cat of the same enzyme for the two substrates
Method: (§1) Enzyme reactions were started by adding a defined amount of enzyme to substrate dilutions in MES-buffer (50 mM MES, 300 mM NaCl, 10 μM ZnCl2, 0.01% Brij-35, pH 6.5) which were previously equilibrated at 37°C. Aliquots of the reaction mixes were taken every 10 minutes and stopped by addition of 0.5 M EDTA to a final concentration of 100 mM before HPLC-based quantification of peptides.
(§2) The concentration of peptides in enzymatic reactions was quantified by detection of peaks eluted from the HPLC column using an in-line diode array detector. Chromatography was performed by running a gradient on a reversed-phase matrix (Source 5RPC, 4.6×150 mm, 5 μm) with 0.08% H3PO4 in water as mobile phase A and 40% acetonitrile in water and 0.08% H3PO4 as mobile phase B. The optical density at 280 nm was recorded inline for all eluting peaks, and peptide concentrations were calculated via calibration curves for each individual peptide.
The turnover rates for natural ACE2 substrates were determined by in vitro incubation with excess amounts of substrate followed by reversed-phase HPLC analysis. […] The resulting time courses are shown in the graphs. […] Each time point was analyzed in true triplicates and standard deviations are given in the graphs together with linear regressions of the measured values.

Ang 1–10 = test: In vitro kinetic assay, Ang 1–10 cleavage to Ang 1–9, HPLC quantification; conditions: […] enzyme, 65 μM Ang 1–10, MES buffer pH 6.5, 37°C, HPLC; mean of substrate degradation and product formation rates related to enzyme concentration; triplicates
Method: as §1, §2
The turnover rates for natural ACE2 substrates were determined by in vitro incubation with excess amounts of substrate followed by reversed-phase HPLC analysis. […] Each time point was analyzed in true triplicates and standard deviations are given in the graphs together with linear regressions of the measured values.

Row | Molecule | Ang 1–7 concentration in whole blood in response to Lisinopril (RAS in whole blood) | Ang (1–10) concentration in plasma ([1]; 0 = below quantification limit) | Ang (1–7) concentration in plasma ([1]; 0 = below quantification limit (2 pg/mL plasma)) | turnover number for Ang 1–8 compared to Ang 1–10 (Ang 1–8) | k cat, Ang 1–10 ≥ Ang 1–9 (Ang 1–10)
1 | NCCCC[C@H](N[C@@H](CCc1ccccc1)C(=O)O)C(=O)N1CCC[C@H]1C(=O)O [Lisinopril] | increase of Ang 1–7 concentrations | 710 pg/mL | < 2 pg/mL |  | 
2 | rhACE2: extracellular domain of human ACE2 recombinantly expressed in CHO cells |  |  |  | 42 fold | 0.018 s⁻¹
